Measured values as given in US6265445A, “Antiarrhythmic compounds” (priority 1997, dated 2001).

Columns and labels:
[1] = tested on: Purkinje's fibres isolated from dog heart; experiment: Intracellular microelectrode technique: action potential parameters, Purkinje's fibres; set-up: species or system mongrel dogs
Method: (§1) The method used is essentially in agreement with the method of Papp et al. [J. Cardiovascular Pharmacol. Ther. 1, 287-296 (1996)].
(§2) Right ventricular papillary muscle and Purkinje's fibres were prepared from the hearts of mongrel dogs (weighing 5 to 10 kg each). The preparations were placed into an organ bath (37° C.) containing modified Tyrode's nutrient medium. The preparations were excited by a basal frequency of 1 Hz. During the experiments, the frequency of stimulation was varied under broad limits by a computer-guided stimulator. The intracellular action potentials were registered by using glass capillary microelectrodes filled with 3 N potassium chloride solution (standard intracellular microelectrode techniques). The resting potential (RP), the amplitude of the action potential (APA) as well as the duration of the action potential (APD) were measured by using an IBM 386 compatible computer by means of an own-developed software. The compounds under test were directly added into the organ bath after dilution of the stock solutions according to the final concentrations desired. The effects of the compounds were observed after an incubation time of 30 to 40 minutes.

dog Purkinje's fibres = experiment: Effect on early after-depolarization induced by dofetilide and BaCl2; conditions: 2 μM; EAD induced by 1 μM dofetilide and 20 μM BaCl2
Method: An early after-depolarization (EAD) was induced on dog Purkinje's fibres by the simultaneous use of 1 μM dofetilide and 20 μM BaCl2. These EAD-s were abolished by the addition of the compound (2 μM) of Example 15.

[2] = tested on: right ventricular papillary muscle of dogs; experiment: Intracellular microelectrode technique: action potential parameters, ventricular papillary muscle; set-up: species or system mongrel dogs
Method: as §1, §2

[3] = Table 4, ventricular muscle, 5 μM, 1 Hz, N = 6

Cc1cccc(C)c1OCC(C)N(C)CCc1ccc(NS(C)(=O)=O)cc1.Cl (stereo not shown) [Example 15, N-[4-[2-[N-Methyl-N-[2-(2,6-dimethylphenoxy)-1-methylethyl]amino]ethyl]phenyl]methanesulfonamide hydrochloride]
effect on APD on Purkinje's fibres (in words) ([1]; 2 μM and 5 μM): abbreviated APD on Purkinje's fibres of the dog | APA (amplitude of the action potential) ([1]; 2 μM, N 3): 112.7 ± 3.9 mV | APD50 (time of 50% repolarization) ([1]; 2 μM, N 3): 180.7 ± 14.8 ms | APD90 (time of 90% repolarization) ([1]; 2 μM, N 3): 400.0 ± 47.4 ms | MDP (maximal diastolic potential) ([1]; 2 μM, N 3): -81.7 ± 2.4 mV | Vmax (maximum rate of depolarization) ([1]; 2 μM, N 3): 392.3 ± 23.7 V/s | APA ([1]; 5 μM, 1 Hz, N = 6): 111.0 ± 2.4 mV | APD50 ([1]; 5 μM, 1 Hz, N = 6): 121.3 ms | APD90 ([1]; 5 μM, 1 Hz, N = 6): 279.0 mS | RP ([1]; 5 μM, 1 Hz, N = 6): -86.0 ± 2.0 mV | Vmax ([1]; 5 μM, 1 Hz, N = 6): 439.3 V/s | effect on early after-depolarization (EAD) (in words) (dog Purkinje's fibres): abolished | APA (amplitude of the action potential) ([2]; 5 μM): 106 mV | APD50 (time of 50% repolarization) ([2]; 5 μM): 210 ms | APD90 (time of 90% repolarization) ([2]; 5 μM): 261 ms | RP (resting potential) ([2]; 5 μM): -85 mV | Recovery Ampl ([2]; 5 μM): 83.6 V/s | Recovery Ampl/Plateau ([2]; 5 μM): 0.35 | Recovery Plateau ([2]; 5 μM): 245.5 V/s | Vmax (maximum rate of depolarization) ([2]; 5 μM): 203 V/s | difference between the effects of Example 15 and its enantiomers (in words) ([2]; 5 μM): No essential difference could be observed | Trecovery (recovery time constant of Vmax) ([2]; 5 μM, Gy: kinetics of rapid restoration): 270.1 ms | effect on APD in ventricular muscle (in words) ([2]; 5 μM, ventricular muscle of the dog): prolonged APD in the ventricular muscle of the dog | APA [2, 3]: 106.3 ± 2.0 mV | APD50 [2, 3]: 209.5 ± 7.1 ms | APD90 [2, 3]: 260.5 ± 6.5 mS | RP [2, 3]: -84.5 ± 1.3 mV | Vmax [2, 3]: 203.0 ± 11.4 V/s | Vmax time of recovery T [2, 3]: 270.1 ± 14.4 ms | Vmax time of recovery amplitude [2, 3]: 83.6 ± 13.5 V/s | Vmax time of recovery amplitude, percentage in parentheses [2, 3]: 35 ± 5% | Vmax time of recovery plateau phase [2, 3]: 245.5 ± 28.0 V/s | effect on duration of the action potential (in words) ([2]; concentrations of Table 2): simultaneous prolongation of duration of the action potential (APD) | effect on Vmax (in words) ([2]; rapid recovery kinetics, concentrations of Table 2): mexiletine-like inhibition of Vmax
